Source: patent US11746100B2 (GLOBAL BLOOD THERAPEUTICS, INC., priority 2020, dated 2023)

target: T1, human ferroportin (Homo sapiens, UniProt Q9NP59); assay: Biological in-vitro ferroportin internalization assay (luciferase reporter); format: cell-based; settings: average pEC50; stably-transfected CHO cell line expressing human ferroportin tagged to a luciferase reporter; 6 h incubation with test compound
T1 construct: luciferase reporter (read with the Nano-Glo Luciferase Assay System); expressed in transfected cells; host or cells: CHO cells, stably transfected, expression induced with doxycycline
T1 sequence (Q9NP59 1-571): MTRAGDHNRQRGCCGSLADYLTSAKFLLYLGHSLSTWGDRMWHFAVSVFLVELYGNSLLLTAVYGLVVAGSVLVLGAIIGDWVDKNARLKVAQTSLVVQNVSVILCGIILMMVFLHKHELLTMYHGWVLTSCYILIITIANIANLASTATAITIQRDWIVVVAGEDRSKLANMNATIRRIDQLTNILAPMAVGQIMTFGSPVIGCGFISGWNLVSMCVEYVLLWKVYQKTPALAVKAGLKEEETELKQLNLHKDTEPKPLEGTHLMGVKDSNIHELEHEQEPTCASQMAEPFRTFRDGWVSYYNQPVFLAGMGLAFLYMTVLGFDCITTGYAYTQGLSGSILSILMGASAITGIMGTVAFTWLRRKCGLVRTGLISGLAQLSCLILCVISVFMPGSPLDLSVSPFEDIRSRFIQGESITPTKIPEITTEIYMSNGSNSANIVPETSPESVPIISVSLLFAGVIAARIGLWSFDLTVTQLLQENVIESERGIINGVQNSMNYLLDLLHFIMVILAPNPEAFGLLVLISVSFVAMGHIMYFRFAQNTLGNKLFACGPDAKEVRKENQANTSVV
Method in brief: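 Stably transfected CHO cells expressing luciferase-tagged human ferroportin, plated 24 h with ferric ammonium citrate and induced with doxycycline for 24 h. Compounds incubated 6 h, then luciferase activity measured by Nano-Glo; average pEC50 reported.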

Compound	pEC50
CN(CC(=O)NC(C)(C)C)c1nc(-c2cc(OCC(O)C(F)(F)F)ccn2)nc2c1CCC2 (stereo not drawn) [Compound 426, N-tert-butyl-2-[methyl({2-[4-(3,3,3-trifluoro-2-hydroxypropoxy)pyridin-2-yl]-5H,6H,7H-cyclopenta[d]pyrimidin-4-yl})amino]acetamide]	8.4
COc1ccc(NC(=O)CN(C)c2nc(-c3cc(OCCO)ccn3)nc3c2CCC3)cc1 [Compound 269, 2-({2-[4-(2-hydroxyethoxy)pyridin-2-yl]-5H,6H,7H-cyclopenta[d]pyrimidin-4-yl}(methyl)amino)-N-(4-methoxyphenyl)acetamide]	8.4
CN(CC(=O)NC1(C)CCCCC1)c1nc(-c2ccccn2)nc2c1CCC2 [Compound 25, 2-{methyl[2-(pyridin-2-yl)-5H,6H,7H-cyclopenta[d]pyrimidin-4-yl]amino}-N-(1-methylcyclohexyl)acetamide]	7.1
CN(CC(=O)Nc1cnn(C)c1)c1nc(-c2cc(OCC(F)(F)F)ccn2)nc2c1CCC2 [Compound 177, 2-[methyl({2-[4-(2,2,2-trifluoroethoxy)pyridin-2-yl]-5H,6H,7H-cyclopenta[d]pyrimidin-4-yl})amino]-N-(1-methyl-1H-pyrazol-4-yl)acetamide]	6.9
COc1ccnc(-c2nc3c(c(N(C)CC(=O)N[C@@H](C)CO)n2)CCC3)c1 [Compound 459, N-[(2S)-1-hydroxypropan-2-yl]-2-{[2-(4-methoxypyridin-2-yl)-5H,6H,7H-cyclopenta[d]pyrimidin-4-yl](methyl)amino}acetamide]	7.3
O=C1CCN(c2nc(-c3ccccn3)nc3c2CCC3)CCN1 [Compound 50, 1-[2-(pyridin-2-yl)-5H,6H,7H-cyclopenta[d]pyrimidin-4-yl]-1,4-diazepan-5-one]	5.6
COc1ncc(NC(=O)CN(C)c2nc(-c3cn(C)cn3)nc3c2CCC3)cn1 [Compound 186, N-(2-methoxypyrimidin-5-yl)-2-{methyl[2-(1-methyl-1H-imidazol-4-yl)-5H,6H,7H-cyclopenta[d]pyrimidin-4-yl]amino}acetamide]	7
COc1ccnc(-c2nc3c(c(N(C)CC(=O)N[C@@H]4CCC[C@H]4O)n2)CCC3)c1 (relative stereo) [Compound 172, N-[(1R,2R)-2-hydroxycyclopentyl]-2-{[2-(4-methoxypyridin-2-yl)-5H,6H,7H-cyclopenta[d]pyrimidin-4-yl](methyl)amino}acetamide]	7.5
CN(CC(=O)NC1CCCOC1)c1nc(-c2ccccn2)nc2c1CCC2 (stereo not drawn) [Compound 26, 2-{methyl[2-(pyridin-2-yl)-5H,6H,7H-cyclopenta[d]pyrimidin-4-yl]amino}-N-(oxan-3-yl)acetamide]	6.6
CN(CC(=O)Nc1cnn(C)c1)c1nc(-c2cc(OCCF)ccn2)nc2c1CCC2 [Compound 243, 2-({2-[4-(2-fluoroethoxy)pyridin-2-yl]-5H,6H,7H-cyclopenta[d]pyrimidin-4-yl}(methyl)amino)-N-(1-methyl-1H-pyrazol-4-yl)acetamide]	7.4
CN(CC(=O)NC(C)(C)C)c1nc(-c2cc3c(cn2)OCCO3)nc2c1CCC2 [Compound 122, N-tert-butyl-2-[(2-{2H,3H-[1,4]dioxino[2,3-c]pyridin-7-yl}-5H,6H,7H-cyclopenta[d]pyrimidin-4-yl)(methyl)amino]acetamide]	7.8
CCNC(=O)CN(C)c1nc(-c2cc(OCC(C)(C)O)ccn2)nc2c1CCC2 [Compound 390, N-ethyl-2-({2-[4-(2-hydroxy-2-methylpropoxy)pyridin-2-yl]-5H,6H,7H-cyclopenta[d]pyrimidin-4-yl}(methyl)amino)acetamide]	7.8
CN(CC(=O)NC(C)(C)C)c1nc(-c2cc(F)ccn2)nc2c1CCC2 [Compound 58, N-tert-butyl-2-{[2-(4-fluoropyridin-2-yl)-5H,6H,7H-cyclopenta[d]pyrimidin-4-yl](methyl)amino}acetamide]	6.7
CN(c1nc(-c2ccccn2)nc2c1CCC2)C1CCN(c2ccccc2)C1=O (stereo not drawn) [Compound 95, 3-{methyl[2-(pyridin-2-yl)-5H,6H,7H-cyclopenta[d]pyrimidin-4-yl]amino}-1-phenylpyrrolidin-2-one]	7.3
CN(CC(=O)NC(C)(C)C)c1nc(-c2cc(C3CC3)ccn2)nc2c1CCC2 [Compound 57, N-tert-butyl-2-{[2-(4-cyclopropylpyridin-2-yl)-5H,6H,7H-cyclopenta[d]pyrimidin-4-yl](methyl)amino}acetamide]	7.5
CC(C)NC(=O)CN(C)c1nc(-c2cc(OCCN3CCOCC3=O)ccn2)nc2c1CCC2 [Compound 436, 2-[methyl(2-{4-[2-(3-oxomorpholin-4-yl)ethoxy]pyridin-2-yl}-5H,6H,7H-cyclopenta[d]pyrimidin-4-yl)amino]-N-(propan-2-yl)acetamide]	7.3
CN(Cc1nncn1-c1cccc(F)c1)c1nc(-c2cc(OCCO)ccn2)nc2c1CCC2 [Compound 319]	6.4

Further lines, results first:

pEC50	Compound
7.6	Cc1ccnc(-c2nc3c(c(N(C)CC(=O)NC(C)(C)C)n2)CCC3)c1 [Compound 24, N-tert-butyl-2-{methyl[2-(4-methylpyridin-2-yl)-5H,6H,7H-cyclopenta[d]pyrimidin-4-yl]amino}acetamide]
6.8	CCn1cnc(-c2nc3c(c(N(C)CC(=O)NC(C)(C)C)n2)CCC3)c1 [Compound 193, N-tert-butyl-2-{[2-(1-ethyl-1H-imidazol-4-yl)-5H,6H,7H-cyclopenta[d]pyrimidin-4-yl](methyl)amino}acetamide]
7.6	CN(CC(=O)Nc1cnn(C)c1)c1nc(-c2cc(OCCO)ccn2)nc2c1CCC2 [Compound 296, 2-({2-[4-(2-hydroxyethoxy)pyridin-2-yl]-5H,6H,7H-cyclopenta[d]pyrimidin-4-yl}(methyl)amino)-N-(1-methyl-1H-pyrazol-4-yl)acetamide]
6.7	CN(CC(=O)NC(C)(C)C)c1nc(-c2cn3ccccc3n2)nc2c1CCC2 [Compound 166, N-tert-butyl-2-[(2-{imidazo[1,2-a]pyridin-2-yl}-5H,6H,7H-cyclopenta[d]pyrimidin-4-yl)(methyl)amino]acetamide]
7.9	COc1ccnc(-c2nc3c(c(N(C)CC(=O)NC(C)(C)C)n2)CCC3)c1 [Compound 34, N-tert-butyl-2-{[2-(4-methoxypyridin-2-yl)-5H,6H,7H-cyclopenta[d]pyrimidin-4-yl](methyl)amino}acetamide]
8.3	C[C@H](C(=O)Nc1cccc(F)c1)N(C)c1nc(-c2cc(OCCO)ccn2)nc2c1CCC2 [Compound 251, (2R)—N-(3-fluorophenyl)-2-({2-[4-(2-hydroxyethoxy)pyridin-2-yl]-5H,6H,7H-cyclopenta[d]pyrimidin-4-yl}(methyl)amino)propanamide]
7.4	COc1ccc(NC(=O)[C@@H](C)N(C)c2nc(-c3cc4ccccc4cn3)nc3c2CCC3)cn1 [Compound 250, (2R)-2-{[2-(isoquinolin-3-yl)-5H,6H,7H-cyclopenta[d]pyrimidin-4-yl](methyl)amino}-N-(6-methoxypyridin-3-yl)propanamide]
8.3	CN(CC(=O)NC(C)(C)C)c1nc(-c2cc(OCCN3CCCC3)ccn2)nc2c1CCC2 [Compound 401, N-tert-butyl-2-[methyl(2-{4-[2-(pyrrolidin-1-yl)ethoxy]pyridin-2-yl}-5H,6H,7H-cyclopenta[d]pyrimidin-4-yl)amino]acetamide]
7.6	CC(C)[C@H](C(=O)NC(C)(C)C)N(C)c1nc(-c2ccccn2)nc2c1CCC2 [Compound 114, (2R)—N-tert-butyl-3-methyl-2-{methyl[2-(pyridin-2-yl)-5H,6H,7H-cyclopenta[d]pyrimidin-4-yl]amino}butanamide]
8.2	CN(CC(=O)NC(C)(C)C)c1nc(-c2cc(OC[C@H]3CCCN3C)ccn2)nc2c1CCC2 [Compound 411, N-tert-butyl-2-{methyl[2-(4-{[(2R)-1-methylpyrrolidin-2-yl]methoxy}pyridin-2-yl)-5H,6H,7H-cyclopenta[d]pyrimidin-4-yl]amino}acetamide]
7.5	COc1ccc(NC(=O)CN(C)c2nc(-c3ccccn3)nc3c2CCC3)cc1 [Compound 75, N-(4-methoxyphenyl)-2-{methyl[2-(pyridin-2-yl)-5H,6H,7H-cyclopenta[d]pyrimidin-4-yl]amino}acetamide]
7.3	COc1ccnc(-c2nc3c(c(N(C)[C@@H]4CCN(c5ccccc5)C4=O)n2)CCC3)c1 [Compound 132, (3R)-3-{[2-(4-methoxypyridin-2-yl)-5H,6H,7H-cyclopenta[d]pyrimidin-4-yl](methyl)amino}-1-phenylpyrrolidin-2-one]
7.6	COc1ccc(NC(=O)CN(C)c2nc(-c3cc(OC4COC4)ccn3)nc3c2CCC3)cn1 [Compound 253, N-(6-methoxypyridin-3-yl)-2-[methyl({2-[4-(oxetan-3-yloxy)pyridin-2-yl]-5H,6H,7H-cyclopenta[d]pyrimidin-4-yl})amino]acetamide]
